Data: PubChem BioAssay AID1963848 (Molecular Pharmacology Branch, DTP, NCI, 2024)
“And” between values parts separate entries of the source, which are not always exact repeats. Equal values may be shown once.

System: 379773-124-R-J2-PDC spheroid viability
Assay: Anticancer human tumor 379773-124-R-J2-PDC patient-derived endometrial carcinoma cell line growth inhibition [POLQ]
Conditions: spheroids with HUVEC and MSC; for viability, T/C: stronger effect = lower value
Summary of the method: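 PDC + HUVEC + MSC complex spheroids; POLQ inhibitors ± partner drugs; top conc. at/near clinical Cmax, else 10 microM (SN-38 1 microM), half-log dilutions; 37 degrees C, 5% CO2.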

[1] = curve of first compound, second compound 0.0316 µM
[2] = curve of first compound, second compound 0.1 µM
[3] = curve of first compound, second compound 0.316 µM
[4] = curve of first compound, second compound 1 µM
[5] = curve of first compound, second compound 3.16 µM
[6] = curve of first compound, second compound 10 µM
[7] = second compound 0.0316 µM, first compound 0.0316 µM
[8] = second compound 0.0316 µM, first compound 0.1 µM
[9] = second compound 0.0316 µM, first compound 0.316 µM
[10] = second compound 0.0316 µM, first compound 1 µM
[11] = second compound 0.0316 µM, first compound 3.16 µM
[12] = second compound 0.0316 µM, first compound 10 µM
[13] = second compound 0.1 µM, first compound 0.0316 µM
[14] = second compound 0.1 µM, first compound 0.1 µM
[15] = second compound 0.1 µM, first compound 0.316 µM
[16] = second compound 0.1 µM, first compound 1 µM
[17] = second compound 0.1 µM, first compound 3.16 µM
[18] = second compound 0.1 µM, first compound 10 µM
[19] = second compound 0.316 µM, first compound 0.0316 µM
[20] = second compound 0.316 µM, first compound 0.1 µM
[21] = second compound 0.316 µM, first compound 0.316 µM
[22] = second compound 0.316 µM, first compound 1 µM
[23] = second compound 0.316 µM, first compound 3.16 µM
[24] = second compound 0.316 µM, first compound 10 µM
[25] = second compound 1 µM, first compound 0.0316 µM
[26] = second compound 1 µM, first compound 0.1 µM
[27] = second compound 1 µM, first compound 0.316 µM
[28] = second compound 1 µM, first compound 1 µM
[29] = second compound 1 µM, first compound 3.16 µM
[30] = second compound 1 µM, first compound 10 µM
[31] = second compound 3.16 µM, first compound 0.0316 µM
[32] = second compound 3.16 µM, first compound 0.1 µM
[33] = second compound 3.16 µM, first compound 0.316 µM
[34] = second compound 3.16 µM, first compound 1 µM
[35] = second compound 3.16 µM, first compound 3.16 µM
[36] = second compound 3.16 µM, first compound 10 µM
[37] = second compound 10 µM, first compound 0.0316 µM
[38] = second compound 10 µM, first compound 0.1 µM
[39] = second compound 10 µM, first compound 0.316 µM
[40] = second compound 10 µM, first compound 1 µM
[41] = second compound 10 µM, first compound 3.16 µM
[42] = second compound 10 µM, first compound 10 µM
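Note: spheroids exposed to drugs for seven days before readout.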
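Throughout, for viability, T/C: percent viability relative to DMSO vehicle control taken as 100%.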

SMILES: COc1cccc(OCCCN)c1-c1cc(Nc2cnc(C#N)cn2)n[nH]1
- viability, T/C (compound 0.00316 µM): 71.1% and 84.4% and 94.5%
- viability, T/C (compound 0.01 µM): 4.45% and 22.9% and 22%
- viability, T/C (compound 0.0316 µM): 2.75% and 2.85% and 3%
- viability, T/C (compound 0.1 µM): 2.5% and 2.23% and 2.01%
- viability, T/C (compound 0.316 µM): 2.05% and 2.52% and 2.6%
- viability, T/C (compound 1 µM): 1.38% and 1.84% and 2.29%
- IC50 (curve of compound): 0.00455 µM and 0.00602 µM and 0.00641 µM

SMILES: CCc1cc2c(N3CCc4c(cc(Cn5ccnc5)cc4-c4cn(C)nc4C(F)(F)F)C3=O)ccnc2c(OC)n1 + Cc1cccc(N(C)C(=O)C2C(O)CCN2c2nc(C)cc(C(F)(F)F)c2C#N)c1
- IC50 [1]: > 10 µM
- IC50 [2]: > 10 µM
- IC50 [3]: > 10 µM
- IC50 [4]: > 10 µM
- IC50 [5]: > 10 µM
- IC50 [6]: 3.73 µM
- viability, T/C [7]: 76.1%
- viability, T/C [8]: 68.8%
- viability, T/C [9]: 73%
- viability, T/C [10]: 63.2%
- viability, T/C [11]: 59.1%
- viability, T/C [12]: 54.5%
- viability, T/C [13]: 81.9%
- viability, T/C [14]: 71.1%
- viability, T/C [15]: 64.3%
- viability, T/C [16]: 69.6%
- viability, T/C [17]: 55.2%
- viability, T/C [18]: 50%
- viability, T/C [19]: 71.9%
- viability, T/C [20]: 85.3%
- viability, T/C [21]: 70.2%
- viability, T/C [22]: 64.8%
- viability, T/C [23]: 55.5%
- viability, T/C [24]: 53%
- viability, T/C [25]: 83.6%
- viability, T/C [26]: 68.9%
- viability, T/C [27]: 65%
- viability, T/C [28]: 63.7%
- viability, T/C [29]: 55.9%
- viability, T/C [30]: 50.2%
- viability, T/C [31]: 73.5%
- viability, T/C [32]: 80.8%
- viability, T/C [33]: 60.9%
- viability, T/C [34]: 65.2%
- viability, T/C [35]: 58.8%
- viability, T/C [36]: 55.7%
- viability, T/C [37]: 69.6%
- viability, T/C [38]: 68.2%
- viability, T/C [39]: 62%
- viability, T/C [40]: 57.9%
- viability, T/C [41]: 50.1%
- viability, T/C [42]: 44.2%

SMILES: COc1ccc([C@@H](O)c2cc(-c3ncnc4cc(N5CCOCC5)ccc34)c(F)cc2Cl)nn1 + COC1C(OC(N)=O)C(O)C(Oc2ccc3c(O)c(NC(=O)c4ccc(O)c(CC=C(C)C)c4)c(=O)oc3c2C)OC1(C)C
- IC50 [1]: 7.23 µM
- IC50 [2]: 9.89 µM
- IC50 [3]: 7.3 µM
- IC50 [4]: 8.15 µM
- IC50 [5]: 7.85 µM
- IC50 [6]: 7.09 µM
- viability, T/C [7]: 89.6%
- viability, T/C [8]: 85.1%
- viability, T/C [9]: 88.3%
- viability, T/C [10]: 80%
- viability, T/C [11]: 81.1%
- viability, T/C [12]: 37.6%
- viability, T/C [13]: 81.4%
- viability, T/C [14]: 81.4%
- viability, T/C [15]: 91.5%
- viability, T/C [16]: 81.1%
- viability, T/C [17]: 91.1%
- viability, T/C [18]: 49.7%
- viability, T/C [19]: 92.6%
- viability, T/C [20]: 82.1%
- viability, T/C [21]: 79.1%
- viability, T/C [22]: 81.6%
- viability, T/C [23]: 75.1%
- viability, T/C [24]: 40.4%
- viability, T/C [25]: 74.2%
- viability, T/C [26]: 83.1%
- viability, T/C [27]: 83.9%
- viability, T/C [28]: 87.8%
- viability, T/C [29]: 82.1%
- viability, T/C [30]: 43.1%
- viability, T/C [31]: 81%
- viability, T/C [32]: 83.3%
- viability, T/C [33]: 96.7%
- viability, T/C [34]: 77.5%
- viability, T/C [35]: 78.5%
- viability, T/C [36]: 42.5%
- viability, T/C [37]: 80.3%
- viability, T/C [38]: 75.8%
- viability, T/C [39]: 82.6%
- viability, T/C [40]: 80.1%
- viability, T/C [41]: 95.8%
- viability, T/C [42]: 35.9%

SMILES: CCc1c2c(nc3ccc(O)cc13)-c1cc3c(c(=O)n1C2)COC(=O)[C@]3(O)CC + Cc1cccc(N(C)C(=O)C2C(O)CCN2c2nc(C)cc(C(F)(F)F)c2C#N)c1
- IC50 [1]: < 0.00316 µM
- IC50 [2]: < 0.00316 µM
- IC50 [3]: < 0.00316 µM
- IC50 [4]: < 0.00316 µM
- IC50 [5]: < 0.00316 µM
- IC50 [6]: < 0.00316 µM
- viability, T/C (second compound 0.0316 µM, first compound 0.00316 µM): 42.3%
- viability, T/C (second compound 0.0316 µM, first compound 0.01 µM): 11.2%
- viability, T/C [7]: 7.22%
- viability, T/C [8]: 2.98%
- viability, T/C [9]: 1.21%
- viability, T/C [10]: 0.39%
- viability, T/C (second compound 0.1 µM, first compound 0.00316 µM): 42.5%
- viability, T/C (second compound 0.1 µM, first compound 0.01 µM): 11.1%
- viability, T/C [13]: 6.54%
- viability, T/C [14]: 3.61%
- viability, T/C [15]: 2%
- viability, T/C [16]: 1.94%
- viability, T/C (second compound 0.316 µM, first compound 0.00316 µM): 50%
- viability, T/C (second compound 0.316 µM, first compound 0.01 µM): 10.5%
- viability, T/C [19]: 6.39%
- viability, T/C [20]: 2.26%
- viability, T/C [21]: 1.38%
- viability, T/C [22]: 0.58%
- viability, T/C (second compound 1 µM, first compound 0.00316 µM): 41.5%
- viability, T/C (second compound 1 µM, first compound 0.01 µM): 12.6%
- viability, T/C [25]: 7.38%
- viability, T/C [26]: 2.95%
- viability, T/C [27]: 2.13%
- viability, T/C [28]: 0.49%
- viability, T/C (second compound 3.16 µM, first compound 0.00316 µM): 43.7%
- viability, T/C (second compound 3.16 µM, first compound 0.01 µM): 14.4%
- viability, T/C [31]: 7.52%
- viability, T/C [32]: 3.81%
- viability, T/C [33]: 1.74%
- viability, T/C [34]: 0.63%
- viability, T/C (second compound 10 µM, first compound 0.00316 µM): 30.8%
- viability, T/C (second compound 10 µM, first compound 0.01 µM): 13.9%
- viability, T/C [37]: 7.18%
- viability, T/C [38]: 3.13%
- viability, T/C [39]: 2.07%
- viability, T/C [40]: 1.28%
